Laboratory results published in patent US11479551B2, “MTA-cooperative PRMT5 inhibitors” (Mirati Therapeutics, Inc., priority 2019, dated 2022).

Experiments:
Type in all cases: cell-based
[1] = test system: HCT116 parental cells; experiment: Proliferation assay (CellTiter-Glo, 10 days of treatment), HCT116 parental; conditions: Homo sapiens, HCT-116, 240 h
Experimental: (§1) Control samples were analyzed in parallel.
Briefly, on Day 0, 250 HCT116 parental or HCT116 homozygous MTAP knockout cell were seeded in 96 well plates in McCoy's 5A supplemented with 10% fetal bovine serum and pen/strep and the cells were incubated overnight at 37° C. plus 5% CO2.
The following day, cells were treated with DMSO vehicle control or a dose response of PRMT5 inhibitors and incubated at 37 C plus 5% CO2 for five days. On Day 6, the cells were trypsinized and split 1:10 into new 96-well plates with fresh medium containing the same concentration of PRMT5 inhibitor and incubated for an additional 5 days at 37° C. plus 5% CO^2.
On Day 11, the viability of the cells was measured using a CTG assay kit (CellTiter-Glo; Promega cat.no G7573) in accordance with the manufacturer's instructions. The IC50 values for each compound after 10 days of treatment were calculated using GraphPad PRISM software.

[2] = test system: HCT116 homozygous MTAP knockout cells; experiment: Proliferation assay (CellTiter-Glo, 10 days of treatment), HCT116 MTAP knockout; conditions: Homo sapiens, HCT-116, 240 h, read-out: Proliferation HCT116MTAP_KO IC50
Outline: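 Viability of the CRISPR/Cas9 homozygous MTAP-knockout HCT116 line was read by CellTiter-Glo after 10 days of PRMT5 inhibitor exposure, with IC50 derived from the dose response. Compound was given the day after seeding and renewed at an identical concentration when cells were split 1:10 on day 6.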

[3] = test system: PRMT5-dependent Symmetric Di-methyl Arginine signal in HCT116 parental cells; experiment: SYM11 In-Cell Western, HCT116 parental; conditions: Homo sapiens, HCT-116, 96 h, 4 days of treatment, SYM11/DRAQ5 ratio
Experimental: as §1
Briefly, on Day 0, 2,000 HCT116 parental or HCT116 homozygous MTAP knockout cells were seeded in 96 well plates in McCoy's 5A supplemented with 10% fetal bovine serum and pen/strep and the cells were incubated overnight at 37° C. plus 5% CO2. The following day, cells were treated with DMSO vehicle control or a dose response of PRMT5 inhibitors, and incubated at 37° C. plus 5% CO^2 for four days.
After 4 days of treatment, the cells were fixed by adding 50 μl of 4% paraformaldehyde solution to each well and the cells were incubated for 20 min at room temperature. The paraformaldehyde solution was removed, 150 μl of ice-cold methanol was added and the plate was placed −20° C. for 10 minutes. The methanol was removed, 150 μl of Odyssey Blocking buffer+0.05% Tween20 was added and the plate was incubated at room temperature with shaking for one hour.
The primary SYM11 antibody solution was removed by aspiration and the wells were washed three consecutive times with phosphate buffered saline containing 0.1% Tween-20 (PBST).
The secondary antibody solution was removed by aspiration and the wells were washed three consecutive times with PB ST.
The SYM11 signal and the DRAQ5 signal were quantified using a Li-Cor Odyssey machine reading at […], respectively. The SYM11/DRAQ5 ratio was used to calculate the inhibition of Symmetric Dimethyl Arginine as percent of DMSO control.

[4] = test system: PRMT5-dependent Symmetric Di-methyl Arginine signal in HCT116 homozygous MTAP knockout cells; experiment: SYM11 In-Cell Western, HCT116 MTAP knockout; conditions: Homo sapiens, HCT-116, 96 h, HCT116 homozygous MTAP knockout cells, 4 days of treatment, SYM11/DRAQ5 ratio; read-out: In-cell-Western (SYM11) HCT116 MTAP_KO IC50

SMILES: COc1cccc2c(C#N)c(-c3c(-c4ccc5c(=O)[nH]nc(CN)c5c4)cnn3C)ccc12 [Example 4-204, 2-(4-(4-(aminomethyl)-1-oxo-1,2-dihydrophthalazin-6-yl)-1-methyl-1H-pyrazol-5-yl)-5-methoxy-1-naphthonitrile]
- IC50 [1]: 1.83 µM
- IC50 [2]: 0.052 µM
- IC50 [3]: > 1 µM
- IC50 [4]: 0.012 µM

SMILES: Cn1ncc(-c2ccc3c(=O)[nH]nc(CN)c3c2)c1-c1cc(C(F)(F)F)cc(OC2CC2)c1C#N [Example 4-209, 2-(4-(4-(aminomethyl)-1-oxo-1,2-dihydrophthalazin-6-yl)-1-methyl-1H-pyrazol-5-yl)-6-cyclopropoxy-4-(trifluoromethyl)benzonitrile]
- IC50 [1]: 4.67 µM
- IC50 [2]: 0.059 µM
- IC50 [3]: > 1 µM
- IC50 [4]: 0.01 µM

SMILES: Cn1ncc(-c2ccc3c(=O)[nH]nc(CN)c3c2)c1-c1cc(C#N)c2ccccc2c1F [Example 4-210, 3-(4-(4-(aminomethyl)-1-oxo-1,2-dihydrophthalazin-6-yl)-1-methyl-1H-pyrazol-5-yl)-4-fluoro-1-naphthonitrile]
- IC50 [1]: 1.36 µM
- IC50 [2]: 0.416 µM
- IC50 [3]: > 1 µM
- IC50 [4]: 0.008 µM

SMILES: Cn1ncc(-c2ccc3c(=O)[nH]nc(CN)c3c2)c1-c1c(Cl)cc2ccccc2c1C#N [Example 4-215, 2-(4-(4-(aminomethyl)-1-oxo-1,2-dihydrophthalazin-6-yl)-1-methyl-1H-pyrazol-5-yl)-3-chloro-1-naphthonitrile]
- IC50 [1]: 3.54 µM
- IC50 [2]: 0.081 µM
- IC50 [3]: > 1 µM
- IC50 [4]: 0.034 µM

SMILES: Cn1ncc(-c2ccc3c(=O)[nH]nc(CN)c3c2)c1-c1ccc2ccc(F)cc2c1C#N [Example 4-217, 2-(4-(4-(aminomethyl)-1-oxo-1,2-dihydrophthalazin-6-yl)-1-methyl-1H-pyrazol-5-yl)-7-fluoro-1-naphthonitrile]
- IC50 [1]: 2.15 µM
- IC50 [2]: 0.096 µM
- IC50 [3]: > 1 µM
- IC50 [4]: 0.087 µM

SMILES: Cn1ncc(-c2ccc3c(=O)[nH]nc(CN)c3c2)c1-c1ccc2c(F)cccc2c1C#N [Example 4-223, 2-(4-(4-(aminomethyl)-1-oxo-1,2-dihydrophthalazin-6-yl)-1-methyl-1H-pyrazol-5-yl)-5-fluoro-1-naphthonitrile]
- IC50 [1]: 7.81 µM
- IC50 [2]: 0.075 µM
- IC50 [3]: 0.756 µM
- IC50 [4]: 0.012 µM

SMILES: Cn1ncc(-c2ccc3c(=O)[nH]nc(CN)c3c2)c1-c1cc(F)c2ccccc2c1C#N [Example 4-224, 2-(4-(4-(aminomethyl)-1-oxo-1,2-dihydrophthalazin-6-yl)-1-methyl-1H-pyrazol-5-yl)-4-fluoro-1-naphthonitrile]
- IC50 [1]: 7.81 µM
- IC50 [2]: 0.416 µM
- IC50 [3]: > 1 µM
- IC50 [4]: 0.01 µM

SMILES: Cn1ncc(-c2ccc3c(=O)[nH]nc(CN)c3c2)c1-c1ccc2ncc(Cl)cc2c1C#N [Example 4-225, 6-[4-[4-(aminomethyl)-1-oxo-2H-phthalazin-6-yl]-2-methyl-pyrazol-3-yl]-3-chloro-quinoline-5-carbonitrile]
- IC50 [1]: 5.17 µM
- IC50 [2]: 0.084 µM
- IC50 [3]: > 1 µM
- IC50 [4]: 0.017 µM

SMILES: Cn1ncc(-c2ccc3c(=O)[nH]nc(CN)c3c2)c1-c1c(C#N)cc2ccccc2c1Cl [Example 4-229, 3-(4-(4-(aminomethyl)-1-oxo-1,2-dihydrophthalazin-6-yl)-1-methyl-1H-pyrazol-5-yl)-4-chloro-2-naphthonitrile]
- IC50 [1]: 2.86 µM
- IC50 [2]: 0.059 µM
- IC50 [3]: > 1 µM
- IC50 [4]: 0.011 µM

SMILES: Cn1ncc(-c2ccc3c(=O)[nH]nc(CN)c3c2)c1-c1cc2ccccc2c(OC2CC2)c1C#N [Example 4-231, 3-(4-(4-(aminomethyl)-1-oxo-1,2-dihydrophthalazin-6-yl)-1-methyl-1H-pyrazol-5-yl)-1-cyclopropoxy-2-naphthonitrile]
- IC50 [1]: 3.12 µM
- IC50 [2]: 0.05 µM
- IC50 [3]: > 1 µM
- IC50 [4]: 0.037 µM
